Here are results for 2 molecules from patent US6906035B2, “Antimicrobial cationic peptides” (priority 1995, dated 2005).

Like-named read-outs stand apart in the source and are kept apart here. Ends that are not written are not given here.

Data set [1] has as its system LPS-induced TNF in RAW 264.7 macrophage cells. Kind of data set: Inhibition of LPS-induced TNF in RAW 264.7 macrophages (L929 cytotoxic assay). The format is cell-based, mouse. As to conditions: for depression of TNF induction by aspirated medium containing peptide: fresh RAW cells. Here is the method: RAW 264.7 macrophage cells were grown by seeding 10^6 cells into a 162 cm^2 cell culture flask and incubated at 37° C., 5% CO2 for 1 week. RAW cell media [(Dulbecco's Modified Eagle Medium with Hepes buffer 450 ml; 2.4 mML-glutamine 3 ml (400 mM); Pen/Strep 3 ml (10^4 U/ml of Pen, 1 mg/ml strep); and 10% heat inactivated fetal bovine serum (FBS) 50 ml)] was then completely removed from flasks. 10 mls of cell dissociation solution (Sigma) was added to each flask and inc; bated at 37° C. for 10 minutes. Cells were removed from flasks, diluted in RAW cell media and centrifuged for 6 minutes. The cell pellet was resuspended in 5 ml of media/flask used, 100 μl cell suspension was removed and added to 400 μl of trypan blue and cells were counted using a hemocytometer. The cell suspension was diluted to 1×10^6 cells/ml and 1 ml of suspension was added per well of a 24 well plate. The 24 well plates were incubated at 37° C., 5% CO2 overnight for use in the assay.
After an overnight incubation, the media was aspirated from all the wells. 100 μl of Lipopolysaccharide (LPS) was added at 100 ng/100 μl. CEME, CEMA or MBI 29 was added at the desired concentration/100 μl to specified wells. […] The plates were then incubated for six hours at 37° C., 5% CO2. The supernatant was then removed from the wells and stored overnight at 4° C. For those wells in which whole bacteria were added directly to the wells, the supernatant was centrifuged in 0.2 μm filter eppendorf tubes for 5 minutes.
The supernatants were then used in cell cytotoxic L929 assay. The samples were transferred to 96 well plates. 50 μl of TNF media was added to all the wells in all the plates except to those wells in the first row. 10 μl of murine TNF standard (20 ng/ml) and 90 μl of TNF media was added in duplicate to the plate and diluted 1:2 down the plate to the second to last row. Test samples (75 μl), comprising the supernatants from the RAW cell assays, were added to separate rows in duplicate and diluted 1:3 to the second to last rows.
TNF-sensitive L929 mouse fibroblast cells were grown by seeding 10^6 cells into a 162 cm^2 cell culture flask and left to grow for 1 week. L929 cells were removed from the flask with 10 mls of trypsin-EDTA/flask and incubated 3-5 minutes. Cell suspension was diluted and centrifuged for 6 minutes. The pellet was resuspended in 5 mls of fresh L929 media/flask and counted (same as RAW cells). Cell suspension was diluted to 10^6 cells/ml. 100 μl was used to inoculate each well of the 96 well plates with the supernatants. (L929 Growth Media was the same as RAW cell media except instead of FBS, 50 mls of 10% heat inactivated horse serum was utilized; TNF Assay Media was the same as RAW cell media except 4 μg/ml Actinomycin D was added.)
The plates were incubated at 37° C. at 5% CO2 for 2 days. The media was then aspirated and replaced with 100 μl of the dye MTT (0.5 mg/ml) in modified Eagle Medium without phenol red. The plates were then incubated at 37° C. at 5% CO2 for 3 hours. The dye was then removed and replaced with 100 μl of absolute ethanol. […]
The plates were read at 570 nm in a ELISA plate reader with 690 nm reference filter. […]
TNF levels were measured six hours after the addition of E. coli 0111:B4 or E. coli Bort LPS (FIGS. 5a, 5b, 5c and FIGS. 6a and 6c as labeled). […]
In order to determine how rapidly the cationic peptides reduced LPS-induced TNF production, E. coli 0111:B4 was added at time 0 to RAW macrophages. […] Levels of TNF were measured after 6 hours. […]

In data set [2] the test system is RAW cells. Kind of data set: RAW cell viability by Trypan blue exclusion. As to conditions: up to 50 μg peptide. The format is cell-based.
Data set [3] relates to P. aeruginosa. Description: Effect of formulation on bactericidal activity (killing, survivors over time). The format is cell-based.
Procedure: (§1) Effect of formulation on bactericidal activity and MIC was determined using the test solutions listed below.
Data set [4] concerns E. coli.
Procedure: as §1
(§2) The media used in this experiment was Cation Adjusted Muller Hinton (CAMHB), and CAMHB +8 mM citrate.
Data set [5] concerns S. typhimurium. As to conditions: S. typhimurium (C610).
Procedure: as §1, §2
For data set [6], the system named is E. facaelis. The following applies: E. facaelis (C625).
Procedure: as §1, §2
The subject of data set [7] is A. calcoacet.
Procedure: as §1, §2
In data set [8] the test system is E. cloacae.
Procedure: as §1, §2
Data set [9] deals with P. aeruginosa. The following applies: P. aeruginosa (H103).
Procedure: as §1, §2
For data set [10] the following is noted: mice.
Procedure: Immediately afterwards LPS (10 or 20 μg) in 100 μl is injected. The mice are observed at 24 and 48 hours after injections and survivors noted.

For `CC[C@H](C)[C@H](NC(=O)[C@H](CC(C)C)NC(=O)[C@H](C)NC(=O)[C@@H]1CCCN1C(=O)[C@H](CC(C)C)NC(=O)CNC(=O)[C@@H](NC(=O)[C@@H](NC(=O)[C@H](CC(C)C)NC(=O)[C@@H](NC(=O)[C@H](CCCCN)NC(=O)[C@H](CCCCN)NC(=O)[C@@H](NC(=O)[C@H](C)NC(=O)[C@@H](NC(=O)[C@@H](NC(=O)[C@H](CC(C)C)NC(=O)[C@H](CCCCN)NC(=O)[C@H](CCCCN)NC(=O)[C@@H](NC(=O)[C@H](Cc1ccccc1)NC(=O)[C@H](CO)NC(=O)[C@H](CCCCN)NC(=O)[C@H](Cc1c[nH]c2ccccc12)NC(=O)[C@@H](N)CCCCN)[C@@H](C)CC)[C@@H](C)O)[C@@H](C)O)C(C)C)C(C)C)[C@@H](C)O)[C@@H](C)O)C(=O)N[C@@H](CO)C(=O)O` [MBI 29], the “TNF induction in RAW cells preincubated with peptide and washed” value in data set [1] (20 μg peptide 60 minutes, washed 3 times, then 10 ng or 100 ng LPS) is reported as 14,000-20,000 Units of TNF per ml. Also, the “inhibition of TNF induction by LPS” value in [1] (E. coli 0111:B4 at time 0, peptide added at 0, 30 and 60 minutes, TNF after 6 hours) was “inhibited TNF induction by LPS in a similar manner to polymyxin B”. Further, the “reduction of LPS-induced TNF when added after LPS” value in data set [1] (added 60 minutes after the addition of LPS) is listed as “effective”. The “depression of TNF induction by aspirated medium containing peptide” value in data set [1] (10 ng E. coli LPS) is 98.5%; in data set [1] (100 ng E. coli LPS), 75%. Besides, in data set [2], the RAW cell viability result is “no apparent decrease”.
For the molecule KWKSFIKKLTSAAKKVVTTAKPLISS [MBI 26], the “Survivors at Time (min.)” value is recorded as 1.3 × 10^7 in data set [3] (Citrate (0.129 M) +Ascorbic Acid (100 mM), MBI 26 10 MG/ML, 0 min); 0 in data set [3] (Citrate (0.129 M) +Ascorbic Acid (100 mM), MBI 26 10 MG/ML, 15 min); 0 in [3] (Citrate (0.129 M) +Ascorbic Acid (100 mM), MBI 26 10 MG/ML, 30 min); 0 in data set [3] (Citrate (0.129 M) +Ascorbic Acid (100 mM), MBI 26 10 MG/ML, 60 min); 1.1 × 10^7 in data set [3] (Citrate (0.129 M), MBI 26 10 MG/ML, 0 min); 0 in data set [3] (Citrate (0.129 M), MBI 26 10 MG/ML, 15 min). Moreover, the “Survivors at Time (min.)” value in data set [3] (Citrate (0.129 M), MBI 26 10 MG/ML, 30 min) is listed as 0; in data set [3] (Citrate (0.129 M), MBI 26 10 MG/ML, 60 min), 0; in data set [3] (Citrate-Dextrose, MBI 26 10 MG/ML, 0 min) it was 9 × 10^6; in data set [3] (Citrate-Dextrose, MBI 26 10 MG/ML, 15 min) it was 20; in data set [3] (Citrate-Dextrose, MBI 26 10 MG/ML, 30 min), 0; in [3] (Citrate-Dextrose, MBI 26 10 MG/ML, 60 min), 0. The “Survivors at Time (min.)” value in [3] (Citrate-Phosphate Dextrose, MBI 26 10 MG/ML, 0 min) is 0; in data set [3] (Citrate-Phosphate Dextrose, MBI 26 10 MG/ML, 30 min), 0; in data set [3] (Citrate-Phosphate Dextrose, MBI 26 10 MG/ML, 60 min), 0; in data set [3] (Dextran, MBI 26 (20 μg), 0 min), 1.9 × 10^7; in [3] (Dextran, MBI 26 (20 μg), 15 min), 1.2 × 10^6; in data set [3] (Dextran, MBI 26 (20 μg), 30 min), 1 × 10^6. Further, the “Survivors at Time (min.)” value in [3] (Dextran, MBI 26 (20 μg), 60 min) is recorded as 8.5 × 10^5. For the same molecule, the MIC in data set [4] (E. coli (111:B4), CAMHB) worked out at 8 µg/mL; in [4] (E. coli (111:B4), CAMHB + Citrate (8 mM)), 2 µg/mL; in data set [4] (E. coli (Bort), CAMHB), 16 µg/mL; in data set [4] (E. coli (Bort), CAMHB + Citrate (8 mM)) it was 8 µg/mL; in data set [4] (E. coli (UB 1005), CAMHB), 4 µg/mL; in [4] (E. coli (UB 1005), CAMHB + Citrate (8 mM)) it was 2 µg/mL. In addition, the MIC was 8 µg/mL in [5] (CAMHB); 2 µg/mL in data set [5] (CAMHB + Citrate (8 mM)); 16 µg/mL in data set [6] (CAMHB); more than 32 µg/mL in [6] (CAMHB + Citrate (8 mM)); 1 µg/mL in data set [7] (A. calcoacet (C403), CAMHB); 1 µg/mL in data set [7] (A. calcoacet (C403), CAMHB + Citrate (8 mM)). The MIC in data set [7] (A. calcoacet. (C402), CAMHB) was 8 µg/mL; in data set [7] (A. calcoacet. (C402), CAMHB + Citrate (8 mM)), 4 µg/mL; in [8] (E. cloacae (C601), CAMHB), 8 µg/mL; in data set [8] (E. cloacae (C601), CAMHB + Citrate (8 mM)), 4 µg/mL; in data set [8] (E. cloacae (C602), CAMHB) it was 8 µg/mL; in [8] (E. cloacae (C602), CAMHB + Citrate (8 mM)), 4 µg/mL. Moreover, the MIC in [8] (E. cloacae (C603), CAMHB) was 4 µg/mL; in data set [8] (E. cloacae (C603), CAMHB + Citrate (8 mM)), 2 µg/mL; in data set [9] (CAMHB), 16 µg/mL; in data set [9] (CAMHB + Citrate (8 mM)), 2 µg/mL. Also, the non-toxic dose result in data set [10] is “up to 30.6 mg/kg”.

As usually defined, the MIC is the lowest concentration found to suppress growth.
